# Tests used:
# in vivo = test: in vivo
# Protocol: All animal procedures followed the Ethical Regulations for the Handling of Laboratory Animals (NOM-062-ZOO-1999) and the requirements of the Institutional Animal Care and Use Committee, according to an approved protocol (CICUAL-08-2018-2021). […] Mice were injected with 3.7 kBq (50 µL) of ^225Ac-iPSMA-RGD and necropsied at 1, 3, 24, 72, and 96 h (n = 3). The liver, heart, kidney, pancreas, lung, spleen, small intestine, and stomach were measured using the Francium-221 photopeak (218 keV) in a hyperpure germanium gamma spectrometer (Ortec, Atlanta, GA, USA). Results were recorded as a percentage of injected dose (%ID) per organ. Blood and bone samples were also dissected, and the associated activity was recorded as %ID/g. A second group of mice was inoculated subcutaneously with 1 × 10^6 HCT116 cells. […] Animals were necropsied on day 11 post-treatment, as described above. Radioisotopic/X-ray ex vivo images of the source organs and tumor were obtained in a preclinical imaging system (Bruker, XTREME, Billerica, MA, USA).
# HCT116 cells [1] = test: Proliferation capability (clonogenic) assay; assay type: cell-based, human; details: 2 Gy and 4 Gy tested
# Protocol: HCT116 cell line was used to evaluate the ability of a single cell to form colonies after exposure to ^225Ac-iPSMA-RGD treatment, in triplicate. We seeded 500 cells in each well (six-well plate) and treated them with 4.5 Bq/well (2 Gy), […] (4 Gy), and control (no treatment) for 1 h, dissolved in 2 mL of RPMI medium. After exposure, the treatments and medium were removed and replaced with fresh medium. The plates were incubated for 15 days. Surviving colonies were fixed for 10 min with 4% paraformaldehyde at room temperature and washed with type 1 water. Afterward, they were stained with 0.1% crystal violet for 30 min, washed with purified water, and dried. For quantification, 10% acetic acid was added for 5 min to extract the crystal violet and the absorbance was measured at 590 nm in a microplate absorbance reader (EpochTM; BioTek Instruments, Winooski, VT, USA). Statistical analysis was performed with two-way ANOVA followed by Tukey’s multiple comparisons test using GraphPad Prism 5.0 Software. Data are shown as mean ± SEM. A p < 0.05 was considered statistically significant.
# [2] = tested on: phosphorylated H2A.X in HCT116 cells; test: DNA double-stranded breaks assay (phosphorylated H2A.X foci); assay type: cell-based, human; details: HCT116, 2 Gy and 4 Gy
# Protocol: For the evaluation of DNA double-stranded breaks (DSBs), the phosphorylation of the Ser-139 gamma histone variant H2A.X (γH2A.X) was used as a biomarker. HCT116 cells were grown on a glass slide after exposure of 4.5 Bq (2 Gy) and 9.0 Bq (4 Gy) of ^225Ac-iPSMA-RGD for 60 min. The anti-phospho-histone H2A.X (ser139) cl 6L16 ZooMAb (Cat. ZRB05636, Merck, Darmstadt, Germany) antibody was used as the primary antibody. […] To quantify the foci, clear and easily distinguishable dots were counted. At least 30 cells were imaged per slide, and the average number of foci per cell was calculated. Statistical analysis was performed with two-way ANOVA followed by Tukey’s multiple comparisons test using GraphPad Prism 5.0 Software. Data are shown as mean ± SEM. A p < 0.05 was considered statistically significant.
# in vitro = details: human, diluted human serum (1:5, v/v)
# Protocol: After adding 200 μL of ^225Ac-iPSMA-RGD to the diluted human serum (1:5, v/v) in a vial (n = 3), the mixture was kept at 37 °C in a dry bath. At 0.5 h, 1 h, and 3 h intervals, 200 μL of each vial was removed and 1 mL of methanol: acetonitrile (1:1, v/v) was added to precipitate the proteins. The total activity was measured in a NaI(Tl) well-type detector by 218 keV gamma emission of Fr-221 and the solution was centrifuged at 3000 rpm for 5 min. The supernatant was then decanted and the pellet measured to determine ^225Ac binding proteins.
# HCT116 cells [3] = test: Viability (cytotoxicity) assay at 24 h; assay type: cell-based, human; details: 2 to 4 Gy
# Protocol: Cytotoxic assays were performed in triplicate (n = 6) using HCT116 cells. After harvesting each cell line, 10,000 cells per well were placed in a 96-well plate and incubated at 37 °C to allow adherence. After 24 h, the culture medium was removed, and treatments (2 Gy, 4 Gy) were placed in each well. To deliver 2 and 4 Gy of radiation dose, 6 Bq/well and 12 Bq/well were added and exposed for 15 h. Then, the treatments were removed and replaced with the medium. The cytotoxicity was evaluated at 24 h by using the Cell proliferation assay (Roche Diagnostics GmbH, Mannheim, Germany). Statistical analysis was performed with two-way ANOVA followed by Tukey’s multiple comparisons test using GraphPad Prism 5.0 Software. Data are shown as mean ± SEM. A p < 0.05 was considered statistically significant.
# [4] = Stability in saline solution (0.9% NaCl) and human serum by radio-HPLC; assay type: physicochemical; details: in both saline and serum
# Protocol: To evaluate the radiochemical purity, a reversed-phase HPLC system with Waters Millenium 32 software coupled to an in-line UV-Vis and radioactivity detector was used, as previously detailed. To recover free ^225Ac and ^225Ac-HEHA-iPSMA, fractions of 1.0 mL were collected, and the activity quantification was through the 218 keV-gamma emission of Fr-221 by assuming secular equilibrium.
# HCT116 cells [5] = test: Reactive oxygen species, Muse Oxidative Stress kit; assay type: cell-based, human; details: for M1 (ROS plot gate) / M2 (ROS plot gate): representative plot
# Protocol: Reactive oxygen species (ROS) were detected with the Muse™ Oxidative Stress kit, (Merck Millipore, Burlington, MA, USA) by measuring the produced intracellular superoxide radicals through dihydroethidium fluorescence. H2O2 (40 nM) was used as the positive control. Briefly, cells were seeded in cell culture flasks at a density of 1 × 10^6 cells and exposed to 4.5 Bq (2 Gy) and 9 Bq (4 Gy) of ^225Ac-iPSMA-RGD. Untreated cells were used as the control group. First, cells were trypsinized and suspended in 10 μL of 1X Assay Buffer. Then 190 μL of the oxidative stress reagent working solution was added to each cell suspension. The suspension was then gently vortexed and incubated at 37 °C with 5% CO2 for 30 min. Fluorescent intensities were examined by flow cytometry using a Muse Cell Analyzer (Merck Millipore, Burlington, MA, USA) and were performed in triplicate. Statistical analysis was performed with two-way ANOVA followed by Tukey’s multiple comparisons test using GraphPad Prism 5.0 Software. Data are shown as mean ± SEM. A p < 0.05 was considered statistically significant.
smiles,measurement,setting,value
"N=C(N)NCCC[C@@H]1NC(=O)[C@H](CCCCNC(=O)CCCN2C(=O)CC(SC[C@H](NC(=O)c3ccc(NNC(=S)Nc4ccc(CC5CN(CC(=O)O)CCN(CC(=O)O)CCN(CC(=O)O)CCN(CC(=O)O)CCN(CC(=O)O)CCN5CC(=O)O)cc4)nc3)C(=O)N[C@@H](Cc3ccc4ccccc4c3)C(=O)NCCCC[C@H](NC(=O)N[C@@H](CCC(=O)O)C(=O)O)C(=O)O)C2=O)NC(=O)[C@@H](Cc2ccccc2)NC(=O)[C@H](CC(=O)O)NC(=O)CNC1=O (some centres unmarked) [^225Ac-iPSMA-RGD, ^225Ac-HEHA-HYNIC-iPSMA-RGD, metal not drawn]",Biodistribution pattern,in vivo; healthy mice,rapid blood clearance with hepatobiliary and renal elimination and no accumulation in other tissue
same,tissue uptake,"in vivo; male, Nu/Nu, mouse, bone, 3.7 kBq, total radioactivity",0.5 ± 0.3 %ID/g
same,Reduction of proliferation capability,HCT116 cells [1],65%
same,Average foci of phosphorylated H2A.X,[2],19
same,fraction unbound at 3 h,in vitro,0.923
same,Cell viability,HCT116 cells [3],dose-dependent decrease in cell viability
same,Decrease of radiochemical purity,[4]; 5 h after preparation,2%
same,Decrease of radiochemical purity,[4]; 24 h after preparation,10%
same,Decrease of radiochemical purity,[4]; 72 h after preparation,30%
same,Increase of HCT116 cells with oxidative stress,HCT116 cells [5]; 4 Gy,approximately 30%
same,M1 (ROS plot gate),"HCT116 cells [5]; HCT116, 2 Gy",90.14%
same,M2 (ROS plot gate),"HCT116 cells [5]; HCT116, 2 Gy",9.82%
same,M1 (ROS plot gate),"HCT116 cells [5]; HCT116, 4 Gy",59.30%
same,M2 (ROS plot gate),"HCT116 cells [5]; HCT116, 4 Gy",40.52%
